How the values were obtained:
[1] = target: SNF-related serine/threonine-protein kinase (Homo sapiens) (UniProt Q9NRH2); conditions: Compound concentration 1000.0 nM
[2] = target: Cyclin-dependent kinase 15 (Homo sapiens) (UniProt Q96Q40); conditions: Compound concentration 1000.0 nM
[3] = target: Serine/threonine-protein kinase SIK1 (Homo sapiens) (UniProt P57059); conditions: Compound concentration 1000.0 nM
[4] = target: Non-receptor tyrosine-protein kinase TYK2 (Homo sapiens) (UniProt P29597); conditions: Compound concentration 1000.0 nM
[5] = target: Dual specificity protein kinase CLK4 (Homo sapiens) (UniProt Q9HAZ1); conditions: Compound concentration 1000.0 nM
[6] = target: Homeodomain-interacting protein kinase 3 (Homo sapiens) (UniProt Q9H422); conditions: Compound concentration 1000.0 nM
[7] = target: Serine/threonine-protein kinase RIO2 (Homo sapiens) (UniProt Q9BVS4); conditions: Compound concentration 1000.0 nM
[8] = system: Mast/stem cell growth factor receptor Kit (Homo sapiens), P10721 [A829P]; conditions: Compound concentration 1000.0 nM
[9] = system: Epidermal growth factor receptor (Homo sapiens), P00533 [G719C]; conditions: Compound concentration 1000.0 nM
[10] = target: Cyclin-dependent kinase-like 1 (Homo sapiens) (UniProt Q00532); conditions: Compound concentration 1000.0 nM
[11] = target: Tyrosine-protein kinase JAK3 (Homo sapiens) (UniProt P52333); conditions: Compound concentration 1000.0 nM
[12] = system: Tyrosine-protein kinase ABL1 (Homo sapiens), P00519 [E255K]; conditions: Compound concentration 1000.0 nM
Tyrosine-protein kinase ABL1 (Homo sapiens), P00519 [E255K], sequence (P00519 whole entry E255K): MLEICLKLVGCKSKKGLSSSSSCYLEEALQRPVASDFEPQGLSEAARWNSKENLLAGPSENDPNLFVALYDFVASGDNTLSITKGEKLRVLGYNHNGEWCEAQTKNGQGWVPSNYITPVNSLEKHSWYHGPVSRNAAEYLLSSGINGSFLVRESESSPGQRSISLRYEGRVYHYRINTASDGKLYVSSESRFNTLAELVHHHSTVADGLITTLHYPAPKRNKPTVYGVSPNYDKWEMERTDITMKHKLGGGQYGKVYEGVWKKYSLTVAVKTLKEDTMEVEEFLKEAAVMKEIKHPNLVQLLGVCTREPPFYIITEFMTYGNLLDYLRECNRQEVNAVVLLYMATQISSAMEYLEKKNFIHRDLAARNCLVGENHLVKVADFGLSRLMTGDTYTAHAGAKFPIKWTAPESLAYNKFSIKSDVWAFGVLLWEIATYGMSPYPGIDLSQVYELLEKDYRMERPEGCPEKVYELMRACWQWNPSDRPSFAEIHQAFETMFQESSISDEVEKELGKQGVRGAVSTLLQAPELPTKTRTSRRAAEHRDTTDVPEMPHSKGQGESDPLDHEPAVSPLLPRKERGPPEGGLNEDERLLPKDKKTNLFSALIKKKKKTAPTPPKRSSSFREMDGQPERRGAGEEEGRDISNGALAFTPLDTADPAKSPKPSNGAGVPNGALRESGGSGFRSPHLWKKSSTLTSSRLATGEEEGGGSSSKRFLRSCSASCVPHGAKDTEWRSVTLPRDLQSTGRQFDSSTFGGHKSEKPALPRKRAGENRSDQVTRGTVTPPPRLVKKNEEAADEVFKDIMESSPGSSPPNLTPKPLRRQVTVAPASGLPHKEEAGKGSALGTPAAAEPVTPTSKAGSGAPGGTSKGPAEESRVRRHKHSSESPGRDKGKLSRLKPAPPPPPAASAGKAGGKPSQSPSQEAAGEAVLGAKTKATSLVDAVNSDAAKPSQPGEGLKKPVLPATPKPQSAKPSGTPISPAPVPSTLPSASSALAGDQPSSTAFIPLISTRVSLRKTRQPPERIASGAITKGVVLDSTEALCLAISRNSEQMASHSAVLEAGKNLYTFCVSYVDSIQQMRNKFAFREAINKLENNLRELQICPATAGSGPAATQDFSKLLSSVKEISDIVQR

[13] = target: Cyclin-dependent kinase 2 homolog (Plasmodium falciparum (isolate 3D7)) (UniProt P61075); conditions: Compound concentration 1000.0 nM
[14] = target: Epidermal growth factor receptor (Homo sapiens) (UniProt P00533); conditions: Compound concentration 1000.0 nM
[15] = target: Serine/threonine-protein kinase RIO1 (Homo sapiens) (UniProt Q9BRS2); conditions: Compound concentration 1000.0 nM
[16] = target: Wee1-like protein kinase (Homo sapiens) (UniProt P30291); conditions: Compound concentration 1000.0 nM
[17] = system: Receptor-type tyrosine-protein kinase FLT3 (Homo sapiens), P36888 [D835V]; conditions: Compound concentration 1000.0 nM
[18] = target: Serine/threonine-protein kinase TBK1 (Homo sapiens) (UniProt Q9UHD2); conditions: Compound concentration 1000.0 nM
[19] = target: Dual specificity mitogen-activated protein kinase kinase 7 (Homo sapiens) (UniProt O14733); conditions: Compound concentration 1000.0 nM
Dual specificity mitogen-activated protein kinase kinase 7 (Homo sapiens), sequence (O14733 whole entry): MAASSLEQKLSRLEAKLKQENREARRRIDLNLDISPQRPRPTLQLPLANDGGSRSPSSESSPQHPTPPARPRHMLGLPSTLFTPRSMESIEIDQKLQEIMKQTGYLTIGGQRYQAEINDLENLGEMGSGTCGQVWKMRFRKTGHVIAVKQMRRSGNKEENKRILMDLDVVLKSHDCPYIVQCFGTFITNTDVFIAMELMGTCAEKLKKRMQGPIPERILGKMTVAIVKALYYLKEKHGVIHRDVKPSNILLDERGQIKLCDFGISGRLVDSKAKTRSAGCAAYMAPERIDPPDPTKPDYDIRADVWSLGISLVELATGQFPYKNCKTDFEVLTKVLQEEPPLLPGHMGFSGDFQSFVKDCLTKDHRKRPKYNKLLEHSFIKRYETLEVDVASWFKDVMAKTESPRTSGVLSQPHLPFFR

[20] = target: Macrophage-stimulating protein receptor (Homo sapiens) (UniProt Q04912); conditions: Compound concentration 1000.0 nM
[21] = target: Serine/threonine-protein kinase B-raf (Homo sapiens) (UniProt P15056); conditions: Compound concentration 1000.0 nM
[22] = target: Death-associated protein kinase 2 (Homo sapiens) (UniProt Q9UIK4); conditions: Compound concentration 1000.0 nM
[23] = system: Epidermal growth factor receptor (Homo sapiens), P00533 [L861Q]; conditions: Compound concentration 1000.0 nM
[24] = target: LIM domain kinase 1 (Homo sapiens) (UniProt P53667); conditions: Compound concentration 1000.0 nM
[25] = target: Serine/threonine-protein kinase TAO1 (Homo sapiens) (UniProt Q7L7X3); conditions: Compound concentration 1000.0 nM
[26] = target: Tyrosine-protein kinase JAK2 (Homo sapiens) (UniProt O60674); conditions: Compound concentration 1000.0 nM
[27] = target: Serine/threonine-protein kinase RIO3 (Homo sapiens) (UniProt O14730); conditions: Compound concentration 1000.0 nM
[28] = target: Serine/threonine-protein kinase DCLK3 (Homo sapiens) (UniProt Q9C098); conditions: Compound concentration 1000.0 nM
[29] = target: Ephrin type-A receptor 1 (Homo sapiens) (UniProt P21709); conditions: Compound concentration 1000.0 nM
[30] = target: RAC-alpha serine/threonine-protein kinase (Homo sapiens) (UniProt P31749); conditions: Compound concentration 1000.0 nM
[31] = target: Dual specificity protein kinase CLK3 (Homo sapiens) (UniProt P49761); conditions: Compound concentration 1000.0 nM
[32] = system: Proto-oncogene tyrosine-protein kinase receptor Ret (Homo sapiens), P07949 [V804M]; conditions: Compound concentration 1000.0 nM
[33] = target: Cyclin-dependent kinase 4 (Homo sapiens) (UniProt P11802); conditions: Compound concentration 1000.0 nM
[34] = target: Tyrosine-protein kinase Fgr (Homo sapiens) (UniProt P09769); conditions: Compound concentration 1000.0 nM
[35] = target: Serine/threonine-protein kinase SIK2 (Homo sapiens) (UniProt Q9H0K1); conditions: Compound concentration 1000.0 nM
[36] = target: Mitogen-activated protein kinase kinase kinase 11 (Homo sapiens) (UniProt Q16584); conditions: Compound concentration 1000.0 nM
[37] = target: Vascular endothelial growth factor receptor 1 (Homo sapiens) (UniProt P17948); conditions: Compound concentration 1000.0 nM
Vascular endothelial growth factor receptor 1 (Homo sapiens), sequence (P17948 whole entry): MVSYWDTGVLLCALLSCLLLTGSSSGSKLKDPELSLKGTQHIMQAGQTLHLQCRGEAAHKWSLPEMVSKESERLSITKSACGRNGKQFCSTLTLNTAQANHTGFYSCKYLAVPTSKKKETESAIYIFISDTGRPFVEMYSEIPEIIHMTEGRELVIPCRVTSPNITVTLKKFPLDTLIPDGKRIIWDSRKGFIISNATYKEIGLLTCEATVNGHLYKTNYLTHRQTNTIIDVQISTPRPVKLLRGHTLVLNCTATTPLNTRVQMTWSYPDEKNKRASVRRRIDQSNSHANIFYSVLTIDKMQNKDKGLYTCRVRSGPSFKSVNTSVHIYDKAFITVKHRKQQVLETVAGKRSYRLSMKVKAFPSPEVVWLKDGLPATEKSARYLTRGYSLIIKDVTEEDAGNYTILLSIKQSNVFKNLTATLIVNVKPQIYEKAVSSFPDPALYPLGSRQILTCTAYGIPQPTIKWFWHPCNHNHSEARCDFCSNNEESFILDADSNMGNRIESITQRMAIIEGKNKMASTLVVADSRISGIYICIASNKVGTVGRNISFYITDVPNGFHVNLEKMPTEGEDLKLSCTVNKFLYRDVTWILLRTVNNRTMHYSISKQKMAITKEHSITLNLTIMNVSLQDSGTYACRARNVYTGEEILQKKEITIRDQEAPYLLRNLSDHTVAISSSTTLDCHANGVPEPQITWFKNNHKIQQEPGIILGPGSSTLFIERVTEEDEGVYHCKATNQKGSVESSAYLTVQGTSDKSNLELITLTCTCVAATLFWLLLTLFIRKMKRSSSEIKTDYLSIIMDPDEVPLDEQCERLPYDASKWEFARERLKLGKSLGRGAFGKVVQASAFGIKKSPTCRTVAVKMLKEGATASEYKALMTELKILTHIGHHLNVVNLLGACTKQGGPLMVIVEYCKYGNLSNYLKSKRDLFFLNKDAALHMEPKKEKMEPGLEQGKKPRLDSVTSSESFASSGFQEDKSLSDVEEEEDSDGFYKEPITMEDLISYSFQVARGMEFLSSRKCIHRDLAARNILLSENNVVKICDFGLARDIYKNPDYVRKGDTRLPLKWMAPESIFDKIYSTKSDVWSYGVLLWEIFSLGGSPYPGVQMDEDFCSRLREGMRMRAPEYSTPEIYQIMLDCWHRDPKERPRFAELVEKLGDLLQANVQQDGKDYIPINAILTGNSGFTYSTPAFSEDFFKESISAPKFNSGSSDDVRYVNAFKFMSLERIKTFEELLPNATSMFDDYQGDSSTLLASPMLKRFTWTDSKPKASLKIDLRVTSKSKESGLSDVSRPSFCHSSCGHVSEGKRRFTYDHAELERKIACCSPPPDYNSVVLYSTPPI

[38] = target: Serine/threonine-protein kinase pim-2 (Homo sapiens) (UniProt Q9P1W9); conditions: Compound concentration 1000.0 nM
[39] = target: Activin receptor type-2A (Homo sapiens) (UniProt P27037); conditions: Compound concentration 1000.0 nM
[40] = target: Cyclin-dependent kinase 17 (Homo sapiens) (UniProt Q00537); conditions: Compound concentration 1000.0 nM
[41] = target: Sodium-dependent noradrenaline transporter (Homo sapiens) (UniProt P23975); conditions: Compound concentration 10.0 uM
Sodium-dependent noradrenaline transporter (Homo sapiens), sequence (P23975 whole entry): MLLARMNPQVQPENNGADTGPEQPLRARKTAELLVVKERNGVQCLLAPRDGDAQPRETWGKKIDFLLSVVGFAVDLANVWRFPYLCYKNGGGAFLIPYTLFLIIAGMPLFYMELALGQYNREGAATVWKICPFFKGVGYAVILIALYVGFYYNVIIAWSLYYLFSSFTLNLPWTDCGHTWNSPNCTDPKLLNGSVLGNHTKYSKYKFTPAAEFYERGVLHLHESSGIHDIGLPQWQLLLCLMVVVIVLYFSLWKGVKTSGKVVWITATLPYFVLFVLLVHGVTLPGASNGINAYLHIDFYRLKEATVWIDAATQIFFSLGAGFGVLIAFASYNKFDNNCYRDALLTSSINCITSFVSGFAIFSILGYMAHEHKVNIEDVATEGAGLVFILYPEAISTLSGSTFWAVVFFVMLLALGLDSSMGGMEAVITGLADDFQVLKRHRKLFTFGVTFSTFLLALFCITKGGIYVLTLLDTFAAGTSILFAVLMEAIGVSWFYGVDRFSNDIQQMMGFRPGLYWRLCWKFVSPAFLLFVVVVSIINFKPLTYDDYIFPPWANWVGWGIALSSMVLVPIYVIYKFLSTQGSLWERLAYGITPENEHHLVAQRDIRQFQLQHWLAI

[42] = target: Serine/threonine-protein kinase 17B (Homo sapiens) (UniProt O94768); conditions: Compound concentration 1000.0 nM
[43] = target: Serine/threonine-protein kinase N2 (Homo sapiens) (UniProt Q16513); conditions: Compound concentration 1000.0 nM
Serine/threonine-protein kinase N2 (Homo sapiens), sequence (Q16513 whole entry, looked up): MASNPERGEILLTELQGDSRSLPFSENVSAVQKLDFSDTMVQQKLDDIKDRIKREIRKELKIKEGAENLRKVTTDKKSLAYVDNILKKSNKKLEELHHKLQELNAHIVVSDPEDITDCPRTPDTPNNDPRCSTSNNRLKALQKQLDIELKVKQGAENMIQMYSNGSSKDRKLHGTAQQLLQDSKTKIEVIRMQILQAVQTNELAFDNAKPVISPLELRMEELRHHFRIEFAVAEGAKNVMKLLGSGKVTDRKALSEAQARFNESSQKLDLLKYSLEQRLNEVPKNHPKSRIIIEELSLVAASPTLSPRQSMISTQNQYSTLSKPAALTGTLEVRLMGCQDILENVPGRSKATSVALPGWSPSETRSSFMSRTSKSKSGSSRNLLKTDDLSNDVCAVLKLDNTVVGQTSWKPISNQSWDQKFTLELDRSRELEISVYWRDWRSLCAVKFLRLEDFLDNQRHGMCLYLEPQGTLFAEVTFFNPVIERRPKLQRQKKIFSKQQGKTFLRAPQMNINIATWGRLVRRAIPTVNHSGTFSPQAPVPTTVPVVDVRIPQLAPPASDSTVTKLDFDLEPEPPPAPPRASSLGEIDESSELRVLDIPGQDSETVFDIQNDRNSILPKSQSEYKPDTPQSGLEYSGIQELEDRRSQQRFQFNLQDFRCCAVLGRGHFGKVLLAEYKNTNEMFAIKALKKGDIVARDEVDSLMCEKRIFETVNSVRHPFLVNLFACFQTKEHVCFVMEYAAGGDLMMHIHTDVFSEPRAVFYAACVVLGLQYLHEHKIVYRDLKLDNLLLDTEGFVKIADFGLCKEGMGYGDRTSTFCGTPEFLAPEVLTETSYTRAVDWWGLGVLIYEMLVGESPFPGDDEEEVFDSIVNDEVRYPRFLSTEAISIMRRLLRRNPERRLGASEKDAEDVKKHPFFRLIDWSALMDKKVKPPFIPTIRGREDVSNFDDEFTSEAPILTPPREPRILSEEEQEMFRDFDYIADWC

[44] = target: Membrane-associated tyrosine- and threonine-specific cdc2-inhibitory kinase (Homo sapiens) (UniProt Q99640); conditions: Compound concentration 1000.0 nM
Membrane-associated tyrosine- and threonine-specific cdc2-inhibitory kinase (Homo sapiens), sequence (Q99640 whole entry): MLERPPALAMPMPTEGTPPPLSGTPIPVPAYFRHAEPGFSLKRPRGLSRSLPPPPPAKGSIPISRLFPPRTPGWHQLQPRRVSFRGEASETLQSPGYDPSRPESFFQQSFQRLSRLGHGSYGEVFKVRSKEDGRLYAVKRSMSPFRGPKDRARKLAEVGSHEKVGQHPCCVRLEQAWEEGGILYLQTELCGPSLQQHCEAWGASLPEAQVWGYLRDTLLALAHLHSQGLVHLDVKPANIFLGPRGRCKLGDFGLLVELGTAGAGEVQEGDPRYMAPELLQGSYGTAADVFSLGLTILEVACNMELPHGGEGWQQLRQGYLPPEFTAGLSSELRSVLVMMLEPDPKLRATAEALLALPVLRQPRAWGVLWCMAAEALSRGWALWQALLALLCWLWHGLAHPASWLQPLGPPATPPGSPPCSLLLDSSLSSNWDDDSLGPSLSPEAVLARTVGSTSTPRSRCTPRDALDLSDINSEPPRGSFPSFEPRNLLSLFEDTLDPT

[45] = system: Tyrosine-protein kinase ABL1 (Homo sapiens), P00519 [F317I]; conditions: Compound concentration 1000.0 nM
Tyrosine-protein kinase ABL1 (Homo sapiens), P00519 [F317I], sequence (P00519 whole entry F317I): as the sequence (P00519 whole entry E255K) above, with K255E, F317I counted along it

O=C(NCc1ncc(C(F)(F)F)cc1Cl)c1ccc2c(c1)C1(CCS(=O)(=O)CC1)[C@H](C1CC1)N2S(=O)(=O)c1ccc(F)cc1 [BAY-784]
inactive: residual activity [1] 77% | residual activity [2] 100% | residual activity [3] 100% | residual activity [4] 92% | residual activity [6] 82% | residual activity [7] 77% | residual activity [8] 92% | residual activity [9] 78% | residual activity [10] 90% | residual activity [11] 79% | residual activity [12] 80% | residual activity [13] 94% | residual activity [14] 95% | residual activity [15] 100% | residual activity [16] 82% | residual activity [17] 70% | residual activity [18] 80% | residual activity [19] 72% | residual activity [20] 99% | residual activity [21] 91% | residual activity [22] 99% | residual activity [23] 84% | residual activity [24] 100% | residual activity [25] 100% | residual activity [26] 80% | residual activity [27] 69% | residual activity [28] 92% | residual activity [29] 100% | residual activity [30] 96% | residual activity [31] 86% | residual activity [32] 100% | residual activity [33] 88% | residual activity [34] 100% | residual activity [35] 96% | residual activity [36] 100% | residual activity [37] 98% | residual activity [38] 94% | residual activity [39] 86% | residual activity [40] 100% | inhibition [41] 1.03% | residual activity [42] 85% | residual activity [43] 70% | residual activity [44] 100% | residual activity [45] 83%
active: residual activity [5] 0%

O=C(NCc1ncc(C(F)(F)F)cc1Cl)c1ccc2c(c1)C1(CCS(=O)(=O)CC1)[C@@H](C1CC1)N2S(=O)(=O)c1ccc(F)cc1 [BAY-786]
active: residual activity [4] 46%
inactive: residual activity [1] 96% | residual activity [2] 69% | residual activity [3] 89% | residual activity [5] 100% | residual activity [6] 81% | residual activity [7] 77% | residual activity [8] 67% | residual activity [9] 90% | residual activity [10] 100% | residual activity [11] 93% | residual activity [12] 100% | residual activity [13] 97% | residual activity [14] 100% | residual activity [15] 78% | residual activity [16] 100% | residual activity [17] 76% | residual activity [18] 84% | residual activity [19] 79% | residual activity [20] 100% | residual activity [21] 96% | residual activity [22] 90% | residual activity [23] 76% | residual activity [24] 91% | residual activity [25] 91% | residual activity [26] 70% | residual activity [27] 72% | residual activity [28] 69% | residual activity [29] 86% | residual activity [30] 94% | residual activity [31] 100% | residual activity [32] 100% | residual activity [33] 88% | residual activity [34] 93% | residual activity [35] 100% | residual activity [36] 100% | residual activity [37] 82% | residual activity [38] 92% | residual activity [39] 100% | residual activity [40] 99% | inhibition [41] 3.76% | residual activity [42] 87% | residual activity [43] 68% | residual activity [44] 92% | residual activity [45] 71%

Reference: ChEMBL document CHEMBL4507266, “Data for DCP probe BAY-784” (2021)
